From US20190262330A1, “Method of Treating Hepatocellular Carcinoma Using N-(4-(6,7-dimethoxyquinolin-4-yloxy)phenyl)-N′-(4-fluorophenyl)cyclopropane-1,1-dicarboxamide, (2S)-hydroxybutanedioate” (Exelixis, Inc., priority 2017, published 2019)

Key:
CYP2C9 [1] = experiment: In vitro CYP induction; assay type: in vitro ADME
RET = RET (Homo sapiens, UniProt P07949); experiment: In vitro biochemical and/or cellular kinase assays
VEGFR-3 = VEGFR-3 (Homo sapiens, UniProt P35916); experiment: In vitro biochemical and/or cellular kinase assays
[2] = system: female rats and offspring; experiment: Pre- and postnatal study in rats; conditions: oral, gestation day 10 through postnatal day 20
FLT-3 = FLT-3 (Homo sapiens, UniProt P36888); experiment: In vitro biochemical and/or cellular kinase assays
Sequence of FLT-3 (P36888 27-993): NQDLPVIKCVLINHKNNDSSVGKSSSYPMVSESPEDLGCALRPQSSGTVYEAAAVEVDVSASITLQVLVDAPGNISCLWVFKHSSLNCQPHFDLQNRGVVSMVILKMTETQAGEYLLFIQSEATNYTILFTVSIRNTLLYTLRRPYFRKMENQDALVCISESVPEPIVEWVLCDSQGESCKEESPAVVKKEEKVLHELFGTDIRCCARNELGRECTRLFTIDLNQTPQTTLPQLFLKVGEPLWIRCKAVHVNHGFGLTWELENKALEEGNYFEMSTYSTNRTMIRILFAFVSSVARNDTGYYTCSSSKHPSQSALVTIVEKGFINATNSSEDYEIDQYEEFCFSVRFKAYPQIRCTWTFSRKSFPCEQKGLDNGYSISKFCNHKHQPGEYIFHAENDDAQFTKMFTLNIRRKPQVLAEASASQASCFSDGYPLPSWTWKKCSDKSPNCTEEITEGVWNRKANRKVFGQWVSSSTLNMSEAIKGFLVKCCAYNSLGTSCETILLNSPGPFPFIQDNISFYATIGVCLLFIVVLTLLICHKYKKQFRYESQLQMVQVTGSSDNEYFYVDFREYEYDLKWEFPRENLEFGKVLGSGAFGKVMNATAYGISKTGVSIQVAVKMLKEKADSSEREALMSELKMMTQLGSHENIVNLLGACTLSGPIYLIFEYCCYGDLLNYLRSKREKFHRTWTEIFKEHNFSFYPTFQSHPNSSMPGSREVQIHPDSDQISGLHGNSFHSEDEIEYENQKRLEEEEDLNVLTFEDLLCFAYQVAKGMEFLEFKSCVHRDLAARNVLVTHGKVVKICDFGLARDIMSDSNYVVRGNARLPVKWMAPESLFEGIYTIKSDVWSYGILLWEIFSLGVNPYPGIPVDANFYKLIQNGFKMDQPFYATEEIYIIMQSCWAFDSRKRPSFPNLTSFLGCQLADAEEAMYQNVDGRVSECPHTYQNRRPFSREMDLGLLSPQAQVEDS

[3] = Population pharmacokinetic analysis in specific populations; assay type: in vivo, human; conditions: integrated population pharmacokinetic analysis
Source text: The pooled analysis included 391 patients with HCC of whom […] were categorized as having normal liver function, mild, and moderate hepatic impairment, respectively.

CYP2C9 [4] = target: CYP2C9 (Homo sapiens, UniProt P11712); experiment: In vitro CYP inhibition; assay type: in vitro ADME
Sequence of CYP2C9 (Homo sapiens, UniProt P11712) (P11712 whole entry): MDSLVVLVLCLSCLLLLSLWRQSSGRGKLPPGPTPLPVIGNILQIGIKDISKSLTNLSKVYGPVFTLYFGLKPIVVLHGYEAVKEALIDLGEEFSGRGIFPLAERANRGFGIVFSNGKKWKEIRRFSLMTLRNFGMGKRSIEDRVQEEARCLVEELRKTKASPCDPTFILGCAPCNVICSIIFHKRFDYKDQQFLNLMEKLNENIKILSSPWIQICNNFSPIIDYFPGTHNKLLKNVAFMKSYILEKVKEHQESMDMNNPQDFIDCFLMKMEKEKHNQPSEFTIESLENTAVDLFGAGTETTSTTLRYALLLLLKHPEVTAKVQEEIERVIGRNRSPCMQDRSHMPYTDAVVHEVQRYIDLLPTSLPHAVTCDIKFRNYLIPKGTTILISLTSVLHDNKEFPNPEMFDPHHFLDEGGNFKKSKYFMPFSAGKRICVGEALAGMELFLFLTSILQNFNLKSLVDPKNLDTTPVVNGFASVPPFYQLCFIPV

AXL = AXL (Homo sapiens, UniProt P30530); experiment: In vitro biochemical and/or cellular kinase assays
juvenile rats = assay type: in vivo, rat
Description: […]. Mortalities occurred at doses equal and greater than 1 mg/kg/day (approximately 0.16 times the clinical dose of 60 mg/day based on body surface area).

female rats = experiment: 14-day general toxicology study in female rats; assay type: in vivo, rat; conditions: 5 mg/kg/day for 14 days
CYP2D6 [5] = target: T1, CYP2D6 (Homo sapiens, UniProt P10635); experiment: In vitro CYP inhibition; assay type: in vitro ADME
T1 sequence (P10635 whole entry): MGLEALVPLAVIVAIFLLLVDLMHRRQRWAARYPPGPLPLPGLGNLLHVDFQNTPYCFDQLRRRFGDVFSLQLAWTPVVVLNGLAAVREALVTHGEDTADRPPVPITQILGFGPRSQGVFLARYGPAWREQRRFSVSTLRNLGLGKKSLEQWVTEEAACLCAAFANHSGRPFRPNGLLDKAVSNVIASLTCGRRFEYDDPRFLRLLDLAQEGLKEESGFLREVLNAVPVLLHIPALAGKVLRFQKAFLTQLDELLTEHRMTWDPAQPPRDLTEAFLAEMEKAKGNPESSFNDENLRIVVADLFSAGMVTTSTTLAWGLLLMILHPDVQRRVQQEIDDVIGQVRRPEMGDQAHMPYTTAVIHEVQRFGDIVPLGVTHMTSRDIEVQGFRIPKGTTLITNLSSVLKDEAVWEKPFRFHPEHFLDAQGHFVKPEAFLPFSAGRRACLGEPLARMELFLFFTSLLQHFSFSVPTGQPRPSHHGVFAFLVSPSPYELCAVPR

KIT = KIT (Homo sapiens, UniProt P10721); experiment: In vitro biochemical and/or cellular kinase assays
CYP1A2 [6] = target: T2, CYP1A2 (Homo sapiens, UniProt P05177); experiment: In vitro metabolic pathways; assay type: in vitro ADME
T2 sequence (P05177 whole entry): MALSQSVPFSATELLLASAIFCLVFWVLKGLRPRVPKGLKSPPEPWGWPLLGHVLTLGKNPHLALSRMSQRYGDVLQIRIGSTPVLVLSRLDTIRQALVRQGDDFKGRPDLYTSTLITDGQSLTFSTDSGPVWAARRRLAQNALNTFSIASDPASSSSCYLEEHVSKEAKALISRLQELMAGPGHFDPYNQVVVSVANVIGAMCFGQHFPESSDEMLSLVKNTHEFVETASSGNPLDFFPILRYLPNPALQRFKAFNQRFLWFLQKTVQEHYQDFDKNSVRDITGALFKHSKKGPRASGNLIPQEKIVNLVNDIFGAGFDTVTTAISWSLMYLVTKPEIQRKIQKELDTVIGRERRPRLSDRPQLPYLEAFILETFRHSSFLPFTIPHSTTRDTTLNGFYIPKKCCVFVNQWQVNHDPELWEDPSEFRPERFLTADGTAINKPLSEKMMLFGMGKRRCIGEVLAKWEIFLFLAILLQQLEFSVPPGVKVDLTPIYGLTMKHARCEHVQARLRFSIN

MRP2 = MRP2 (Homo sapiens, UniProt Q92887); experiment: Drug transporter systems; assay type: in vitro ADME; conditions: in vitro
CYP2E1 = CYP2E1 (Homo sapiens, UniProt P05181); experiment: In vitro metabolic pathways; assay type: in vitro ADME
Sequence of CYP2E1 (P05181 whole entry): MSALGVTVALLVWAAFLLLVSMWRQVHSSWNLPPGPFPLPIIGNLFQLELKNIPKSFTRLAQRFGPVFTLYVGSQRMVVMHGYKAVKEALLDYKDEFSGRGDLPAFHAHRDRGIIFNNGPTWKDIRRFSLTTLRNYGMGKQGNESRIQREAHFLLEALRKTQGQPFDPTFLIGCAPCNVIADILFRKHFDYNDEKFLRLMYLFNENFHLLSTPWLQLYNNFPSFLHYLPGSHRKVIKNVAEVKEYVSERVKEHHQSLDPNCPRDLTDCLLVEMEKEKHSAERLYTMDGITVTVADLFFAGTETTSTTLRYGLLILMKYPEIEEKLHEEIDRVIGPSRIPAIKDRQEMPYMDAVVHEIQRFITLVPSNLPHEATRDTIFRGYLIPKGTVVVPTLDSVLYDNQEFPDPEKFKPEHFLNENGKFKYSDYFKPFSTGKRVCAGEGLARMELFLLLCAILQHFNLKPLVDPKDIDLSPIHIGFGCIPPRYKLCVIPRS

CYP2B6 [7] = experiment: In vitro CYP induction; assay type: in vitro ADME
CYP3A4 [8] = experiment: Drug interaction with strong CYP3A4 inducer rifampin; assay type: in vivo, human; conditions: rifampin 600 mg daily for 31 days, healthy subjects
MER = MER (Homo sapiens, UniProt Q12866); experiment: In vitro biochemical and/or cellular kinase assays
CYP1A2 [9] = target: T2, CYP1A2; experiment: In vitro CYP inhibition; assay type: in vitro ADME
[10] = system: previously treated advanced HCC; experiment: CELESTIAL secondary analysis: target lesion size, serum AFP, time to progression; assay type: in vivo, human
Description: Patients must have received prior sorafenib and were allowed up to 2 lines of prior systemic therapy for HCC. Change in the sum of target lesion diameters (SOD) from baseline was determined every 8 weeks by investigator. Best percentage change in SOD was defined as the maximum reduction in SOD at any postbaseline timepoint. Serum AFP levels were measured centrally at baseline and every 8 weeks on the same schedule as tumor assessments. TTP was defined as the time from randomization to radiological progression or clinical deterioration and was determined retrospectively.

CYP2C19 [11] = target: T3, CYP2C19 (Homo sapiens, UniProt P33261); experiment: In vitro metabolic pathways; assay type: in vitro ADME
T3 sequence (P33261 whole entry): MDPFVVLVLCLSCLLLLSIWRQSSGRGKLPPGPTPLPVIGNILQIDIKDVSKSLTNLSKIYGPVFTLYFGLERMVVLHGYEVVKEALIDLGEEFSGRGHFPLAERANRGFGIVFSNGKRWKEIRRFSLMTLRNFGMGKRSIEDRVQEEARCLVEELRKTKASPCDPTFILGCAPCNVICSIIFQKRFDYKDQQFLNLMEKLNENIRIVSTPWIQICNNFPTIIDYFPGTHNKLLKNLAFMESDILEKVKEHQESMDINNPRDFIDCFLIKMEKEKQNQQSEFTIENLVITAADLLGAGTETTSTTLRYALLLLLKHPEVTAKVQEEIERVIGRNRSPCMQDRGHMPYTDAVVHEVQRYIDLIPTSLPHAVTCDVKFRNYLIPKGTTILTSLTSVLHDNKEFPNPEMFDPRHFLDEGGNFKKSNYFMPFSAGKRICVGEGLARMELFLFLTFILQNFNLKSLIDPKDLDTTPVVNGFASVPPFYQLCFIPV

CYP2D6 [12] = target: T1, CYP2D6; experiment: In vitro metabolic pathways; assay type: in vitro ADME
CYP2C8 [13] = target: CYP2C8 (Homo sapiens, UniProt P10632); experiment: In vitro CYP inhibition; assay type: in vitro ADME
CYP3A4 [14] = target: T4, CYP3A4 (Homo sapiens, UniProt P08684); experiment: In vitro metabolic pathways; assay type: in vitro ADME
T4 sequence (P08684 whole entry): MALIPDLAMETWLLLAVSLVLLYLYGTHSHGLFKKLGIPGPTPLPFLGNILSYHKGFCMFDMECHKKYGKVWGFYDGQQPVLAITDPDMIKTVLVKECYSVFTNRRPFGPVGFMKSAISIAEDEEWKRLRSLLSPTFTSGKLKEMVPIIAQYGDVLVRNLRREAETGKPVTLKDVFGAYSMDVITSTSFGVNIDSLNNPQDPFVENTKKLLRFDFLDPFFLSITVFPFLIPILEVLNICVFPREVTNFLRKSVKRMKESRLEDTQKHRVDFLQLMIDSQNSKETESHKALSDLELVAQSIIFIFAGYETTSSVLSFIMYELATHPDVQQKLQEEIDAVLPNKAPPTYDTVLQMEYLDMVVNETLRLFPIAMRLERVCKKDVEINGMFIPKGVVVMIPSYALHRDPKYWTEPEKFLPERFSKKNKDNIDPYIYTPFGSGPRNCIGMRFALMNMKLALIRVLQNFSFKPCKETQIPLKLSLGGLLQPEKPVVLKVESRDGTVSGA

CYP3A4 [15] = target: T4, CYP3A4; experiment: Drug interaction with strong CYP3A4 inhibitor ketoconazole; assay type: in vivo; parameters: from tissue; conditions: ketoconazole 400 mg daily for 27 days, healthy subjects
Sprague-Dawley rats = experiment: 2-year rat carcinogenicity study; assay type: in vivo
CYP2C19 [16] = target: T3, CYP2C19; experiment: In vitro CYP inhibition; assay type: in vitro ADME
[17] = system: advanced hepatocellular carcinoma; conditions: from study entry; cited from earlier work
[18] = Clinical pharmacokinetics; assay type: in vivo, human
pregnant rats = experiment: Embryo-fetal development study in pregnant rats; conditions: daily oral, throughout organogenesis
CYP2B6 [19] = target: CYP2B6 (Homo sapiens, UniProt P20813); experiment: In vitro metabolic pathways; assay type: in vitro ADME
CYP2C8 [20] = experiment: In vitro CYP induction; assay type: in vitro ADME
TIE-2 = TIE-2 (Homo sapiens, UniProt Q02763); experiment: In vitro biochemical and/or cellular kinase assays
TRKB = TRKB (Homo sapiens, UniProt Q16620); experiment: In vitro biochemical and/or cellular kinase assays
Sequence of TRKB (Q16620 32-822): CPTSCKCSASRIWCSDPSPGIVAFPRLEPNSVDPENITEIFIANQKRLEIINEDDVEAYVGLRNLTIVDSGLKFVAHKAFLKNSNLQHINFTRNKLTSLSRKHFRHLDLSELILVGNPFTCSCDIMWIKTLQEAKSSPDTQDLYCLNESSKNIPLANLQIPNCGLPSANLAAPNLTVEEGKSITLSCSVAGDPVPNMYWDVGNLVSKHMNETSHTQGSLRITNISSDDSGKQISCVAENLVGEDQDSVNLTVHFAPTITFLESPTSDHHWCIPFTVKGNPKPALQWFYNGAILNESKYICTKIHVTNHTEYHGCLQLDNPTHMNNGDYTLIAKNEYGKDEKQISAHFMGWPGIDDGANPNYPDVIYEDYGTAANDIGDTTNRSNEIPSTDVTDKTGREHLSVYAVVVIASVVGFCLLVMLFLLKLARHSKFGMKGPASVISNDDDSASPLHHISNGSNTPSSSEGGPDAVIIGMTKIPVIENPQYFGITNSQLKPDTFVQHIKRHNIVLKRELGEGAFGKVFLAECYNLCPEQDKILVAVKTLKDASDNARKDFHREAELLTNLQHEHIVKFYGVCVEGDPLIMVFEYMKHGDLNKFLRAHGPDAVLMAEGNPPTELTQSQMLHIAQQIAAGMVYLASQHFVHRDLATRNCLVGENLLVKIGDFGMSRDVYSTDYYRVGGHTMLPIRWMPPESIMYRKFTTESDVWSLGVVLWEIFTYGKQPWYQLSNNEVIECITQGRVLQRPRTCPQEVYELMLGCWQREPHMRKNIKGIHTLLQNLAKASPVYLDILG

SMILES: COc1cc2nccc(Oc3ccc(NC(=O)C4(C(=O)Nc5ccc(F)cc5)CC4)cc3)c2cc1OC [cabozantinib]
- Induction of CYP2C9 (CYP2C9 [1]): does not induce
- Tyrosine kinase activity of RET (RET): inhibits
- Tyrosine kinase activity of VEGFR-3 (VEGFR-3): inhibits
- Doses without adverse maternal toxicity or effect on offspring survival, growth or postnatal development [2]: up to 0.3 mg/kg/day
- Tyrosine kinase activity of FLT-3 (FLT-3): inhibits
- Differences in mean plasma exposure among normal liver function, mild and moderate hepatic impairment [3]: no clinically significant differences
- Effect on CYP2C9 pathway (CYP2C9 [4]): affected by cabozantinib in vitro
- Tyrosine kinase activity of AXL (AXL): inhibits
- Mortality (juvenile rats; 2 mg/kg): high levels of mortality
- Effects on bones (juvenile rats; rat, in vivo): reduced bone mineral content and density, physeal hypertrophy, and decreased cortical bone
- Recovery after treatment ceased (juvenile rats; rat, in vivo): effects on bone parameters were partially resolved but effects on the kidney and epididymis/testis persisted
- Target organs (juvenile rats; rat, in vivo): kidney (nephropathy, glomerulonephritis), reproductive organs, gastrointestinal tract
- 1 mg/kg/day as times the clinical dose of 60 mg/day based on body surface area (juvenile rats; rat, in vivo, 1 mg/kg/day): approximately 0.16 times
- 2 mg/kg as times the clinical dose of 60 mg based on body surface area (juvenile rats; rat, in vivo, 2 mg/kg): approximately 0.32 times
- Ovarian finding (female rats): ovarian necrosis
- Inhibition of CYP2D6 (CYP2D6 [5]): does not inhibit
- Tyrosine kinase activity of KIT (KIT): inhibits
- Effect of inhibition of CYP1A2 on metabolite formation (CYP1A2 [6]): no effect
- MRP2 substrate status (MRP2): substrate
- Effect of inhibition of CYP2E1 on metabolite formation (CYP2E1): no effect
- Induction of CYP2B6 (CYP2B6 [7]): does not induce
- Decrease of single-dose plasma exposure (AUC0-inf) (CYP3A4 [8]): 77%
- Tyrosine kinase activity of MER (MER): inhibits
- Inhibition of CYP1A2 (CYP1A2 [9]): does not inhibit
- Patients with any postbaseline reduction in SOD as best response ([10]; ITT): 47%
- Patients with ≥30% reduction in SOD ([10]; ITT): 8%
- Patients with ≥50% postbaseline decrease in serum AFP ([10]; ITT): 23%
- Patients with ≥30% reduction in postbaseline SOD ([10]; baseline AFP <400 ng/mL): 9%
- Patients with ≥30% reduction in postbaseline SOD ([10]; baseline AFP ≥400 ng/mL): 7%
- Median TTP ([10]; in vivo): 5.4 months
- Effect of inhibition of CYP2C19 on metabolite formation (CYP2C19 [11]): no effect
- Effect of inhibition of CYP2D6 on metabolite formation (CYP2D6 [12]): no effect
- Inhibition of CYP2C8 (CYP2C8 [13]): inhibitor
- CYP3A4 substrate status (CYP3A4 [14]): substrate
- Increase of single-dose plasma exposure (AUC0-inf) (CYP3A4 [15]): 38%
- Exposure at that dose, times the human exposure by AUC at the recommended 60 mg dose (Sprague-Dawley rats; 1 mg/kg): approximately 5 times
- Dose with statistically significant increase in incidence of pheochromocytoma in male rats (Sprague-Dawley rats; once daily oral, 2-year): 1 mg/kg
- Effect on CYP2C19 pathway (CYP2C19 [16]): affected by cabozantinib in vitro
- Median overall survival [17]: 11.5 months
- Median progression-free survival [17]: 5.2 months
- Steady state achieved ([18]; 140 mg daily): ≤ 15 days
- Vd/F ([18]; human, plasma, po, read-out: Oral volume of distribution (VZ/F)): ~319 L
- Tmax ([18]; human, plasma, oral, read-out: Median time to peak plasma concentrations (Tmax)): 3 to 4 h
- Dose with delayed ossification and skeletal variations (pregnant rats): 0.01 mg/kg/day
- Effect of inhibition of CYP2B6 on metabolite formation (CYP2B6 [19]): no effect
- Induction of CYP2C8 (CYP2C8 [20]): does not induce
- Tyrosine kinase activity of TIE-2 (TIE-2): inhibits
- Tyrosine kinase activity of TRKB (TRKB): inhibits
